The source of these data is patent US12357601B2, “Composition for inhibiting growth of bacterium having menaquinone synthesis pathway through futalosine or futalosine derivative” (NOSTER INC., priority 2017, dated 2025).

Common to all, as to format: cell-based
Experiment [1] relates to Campylobacter jejuni ATCC33560 strain. The experiment is described as follows: Proliferation inhibitory effect (in vitro) on Campylobacter jejuni, absorbance and colony count. As to conditions: 100, 200, 400 μM, 24 hr; concentration dependent; strong compared to linoleic acid.
The subject of experiment [2] is Campylobacter coli ATCC33559 strain. The experiment is described as follows: Proliferation inhibitory effect (in vitro) on Campylobacter coli, absorbance and colony count. To be noted: 100, 200, 400 μM, 24 hr; concentration dependent; strong compared to linoleic acid.
Experiment [3] concerns Helicobacter pylori TK1029 strain. The experiment is described as follows: Proliferation inhibitory effect (in vitro) by ED50 measurement, viable count. To be noted: BHI 2% FCS, viable count; for ED50 value, 15 hr later: 15 hr shaking culture; for ED50 value, 25 hr later: 25 hr shaking culture. How it is done:
Helicobacter pylori TK1029 strain (clinical isolate) was cultured in Brucella broth containing 10% FCS and 1×10^6 CFU of bacteria were respectively added to 3 mL of Brain-Heart Infusion Broth (BHI) media (previously added with free fatty acid (stearic acid, oleic acid, linoleic acid, ricinoleic acid, HYA) at 0, 0.5, 5, 50, 500 μg/mL) containing 2% FCS in a 6-well plate. Shaking culture was performed under conditions of temperature 37° C., humidity 100%, microaerobic (5% 02, 10% CO2, 85% N2), the culture medium (0.1 mL) from each well was applied to NISSUI plate, Helicobacter agar medium 15 hr and 25 hr later, and the number of colonies formed after microaerobic culture for 3 days was counted.

The test system of experiment [4] is Helicobacter pylori SS1 strain, TN2GF4 strain, TK1029 strain, RC-1 strain. The experiment is described as follows: Proliferation inhibitory effect (in vitro) of low concentration fatty acid, shaking culture 24 hr, colony count. To be noted: menaquinone (MK-4) 100 μg/mL added with fatty acid 20 μM. How it is done: Helicobacter pylori SS1 strain, TN2GF4 strain, TK1029 strain, RC-1 strain were each inoculated to a 6-well plate containing 2 mL of a liquid medium (BHI added with 5% FCS), and fatty acid (20 μM) and menaquinone (MK-4) 100 μg/mL were added. After shaking culture for 24 hr at temperature 37° C., microaerobic conditions (5% 02, 10% CO2, 85% N2), the culture medium was applied on a Helicobacter agar plate, cultured for 3 days and the resulting colonies were counted (FIG. 2-1 A: SS1 strain, FIG. 2-2 B: TN2GF4 strain, FIG. 2-3 C: TK1029 strain, FIG. 2-4 D: RC-1 strain. Item 1: control (menaquinone no addition), Item 2: control (menaquinone 100 μg/mL addition), Item 3: HYA 20 μM (menaquinone no addition), Item 4: HYA 20 μM (menaquinone 100 μg/mL addition), Item 5: linoleic acid 20 μM (menaquinone no addition), Item 6: linoleic acid 20 μM (menaquinone 100 μg/mL addition). *, P<0.0001 vs. Control (ordinary one-way ANOVA)).

The subject of experiment [5] is Helicobacter pylori SS1 strain, TN2GF4 strain, ATCC43579 strain, NCTC11637 strain, TY281 strain, TY1345 strain. The experiment is described as follows: Proliferation inhibitory effect (in vitro), static culture 3 days, colony count. To be noted: menaquinone (MK-4) 100 μg/mL added with fatty acid. How it is done: Helicobacter pylori SS1 strain, TN2GF4 strain, ATCC43579 strain, NCTC11637 strain, TY281 strain, TY1345 strain were each inoculated to a 6-well plate containing 3 mL of a liquid medium (Brucella broth added with 10% FCS), and fatty acid (200 μM or 1000 μM) and menaquinone (MK-4) 100 μg/mL were added. After static culture for 3 days at temperature 37° C., microaerobic conditions (5% 02, 10% 002, 85% N2), the culture medium was applied on a Helicobacter agar plate, cultured for 3 days and the resulting colonies were counted (FIG. 1-1 A: SS1 strain, FIG. 1-2 B: TN2GF4 strain, FIG. 1-3 C: ATCC43579 strain, FIG. 1-4 D: NCTC11637 strain, FIG. 1-5 E: TY281 strain, FIG. 1-6 F: TY1345 strain. Item C: control (no addition), Item 1: HYA addition, Item 2: HYA and menaquinone addition, Item 3: linoleic acid addition, Item 4: linoleic acid and menaquinone addition).

In brackets after ≈: the same amount, converted by molar mass.

In the case of `CCCCC/C=C\CC(O)CC/C=C\CCCCC(=O)O` (stereo not drawn) [γHYA, 10-hydroxy-cis-6,cis-12-octadecadienoic acid], in experiment [1], the “proliferation of Campylobacter jejuni ATCC33560 strain” value is “inhibited proliferation”. Also, the “proliferation of Campylobacter coli ATCC33559 strain” value in experiment [2] was “inhibited proliferation”.
On to `CCCCCCCC/C=C\CCCCCCCC(=O)O` [oleic acid], for which, in experiment [3], the “ED50 value, 15 hr later” value worked out at 50 µg/mL (≈ 177 µM) and the “ED50 value, 25 hr later” value was above 50 µg/mL.
Take `CCCCCCCCCCCCCCCCCC(=O)O` [stearic acid]: in experiment [3], the “ED50 value, 15 hr later” value is 500 µg/mL (≈ 1760 µM) and the “ED50 value, 25 hr later” value was above 500 µg/mL.
On the same counts, the results for `CCCCC/C=C\C/C=C\CCCCCCCC(=O)O` [linoleic acid] are 50 µg/mL (≈ 178 µM) and 50 µg/mL (≈ 178 µM).
Turning to `CC/C=C\C/C=C\CC(O)CCCCCCCCC(=O)O` (stereo not drawn) [αHYA, 10-hydroxy-cis-12,cis-15-octadecadienoic acid], the “proliferation of Campylobacter jejuni ATCC33560 strain” value in experiment [1] is “inhibited proliferation”. Further, the “proliferation of Campylobacter coli ATCC33559 strain” value in experiment [2] was “inhibited proliferation”.
`CCCCCC[C@@H](O)C/C=C\CCCCCCCC(=O)O` [ricinoleic acid]: in experiment [3], the “ED50 value, 15 hr later” value is 5 µg/mL (≈ 16.8 µM) and the “ED50 value, 25 hr later” value came out at 0.5 µg/mL (≈ 1.68 µM).
For the compound `CC(C)=CCC/C(C)=C/CC/C(C)=C/CC/C(C)=C/CC1=C(C)C(=O)c2ccccc2C1=O` [menaquinone (MK-4), menaquinone], the “effect of menaquinone addition on inhibition of proliferation by fatty acid” value in experiment [4] and in experiment [5] was “mitigated inhibition of proliferation” throughout.
